Experimental data reported in ChEMBL document CHEMBL1201862, “PubChem BioAssay data set” (2004).
Calls of active or inactive are those of the source.

Tests used:
Protein RecA = target: T1, Protein RecA (Mycobacterium tuberculosis, UniProt P9WHJ3); experiment: Fluorescence Cell-Free Homogeneous Dose Retest to Identify Inhibitors of RecA-Intein Splicing Activity. [Related pubchem assays (depositor defined):AID2097, AID2223, AID489010, AID492950]; assay type: functional
T1 sequence (P9WHJ3 whole entry): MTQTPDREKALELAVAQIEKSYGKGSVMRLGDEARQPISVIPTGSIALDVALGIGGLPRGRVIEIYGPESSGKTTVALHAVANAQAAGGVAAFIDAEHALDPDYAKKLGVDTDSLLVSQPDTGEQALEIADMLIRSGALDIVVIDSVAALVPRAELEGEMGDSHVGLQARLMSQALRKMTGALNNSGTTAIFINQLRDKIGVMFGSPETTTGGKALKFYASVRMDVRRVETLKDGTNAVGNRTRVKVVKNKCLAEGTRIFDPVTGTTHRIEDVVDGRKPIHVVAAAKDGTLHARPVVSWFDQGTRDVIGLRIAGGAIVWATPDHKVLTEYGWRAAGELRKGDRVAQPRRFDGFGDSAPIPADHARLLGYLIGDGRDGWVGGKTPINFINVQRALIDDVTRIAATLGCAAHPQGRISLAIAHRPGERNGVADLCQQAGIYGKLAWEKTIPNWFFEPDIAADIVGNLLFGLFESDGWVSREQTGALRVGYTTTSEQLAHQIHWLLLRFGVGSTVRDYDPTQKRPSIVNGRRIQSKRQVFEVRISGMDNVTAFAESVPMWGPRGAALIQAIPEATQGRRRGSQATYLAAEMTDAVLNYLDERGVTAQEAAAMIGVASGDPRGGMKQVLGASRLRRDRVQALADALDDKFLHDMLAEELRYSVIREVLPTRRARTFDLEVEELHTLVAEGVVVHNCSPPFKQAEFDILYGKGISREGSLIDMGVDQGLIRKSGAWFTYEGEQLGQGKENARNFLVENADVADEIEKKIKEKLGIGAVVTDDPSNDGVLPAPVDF

Hexokinase HKDC1 = target: T2, Hexokinase HKDC1 (Homo sapiens, UniProt Q2TB90); experiment: HKDC1 hexokinase inhibitors, dose response, biochemical, W721R variant (AID 504729); assay type: functional
T2 sequence (Q2TB90 whole entry): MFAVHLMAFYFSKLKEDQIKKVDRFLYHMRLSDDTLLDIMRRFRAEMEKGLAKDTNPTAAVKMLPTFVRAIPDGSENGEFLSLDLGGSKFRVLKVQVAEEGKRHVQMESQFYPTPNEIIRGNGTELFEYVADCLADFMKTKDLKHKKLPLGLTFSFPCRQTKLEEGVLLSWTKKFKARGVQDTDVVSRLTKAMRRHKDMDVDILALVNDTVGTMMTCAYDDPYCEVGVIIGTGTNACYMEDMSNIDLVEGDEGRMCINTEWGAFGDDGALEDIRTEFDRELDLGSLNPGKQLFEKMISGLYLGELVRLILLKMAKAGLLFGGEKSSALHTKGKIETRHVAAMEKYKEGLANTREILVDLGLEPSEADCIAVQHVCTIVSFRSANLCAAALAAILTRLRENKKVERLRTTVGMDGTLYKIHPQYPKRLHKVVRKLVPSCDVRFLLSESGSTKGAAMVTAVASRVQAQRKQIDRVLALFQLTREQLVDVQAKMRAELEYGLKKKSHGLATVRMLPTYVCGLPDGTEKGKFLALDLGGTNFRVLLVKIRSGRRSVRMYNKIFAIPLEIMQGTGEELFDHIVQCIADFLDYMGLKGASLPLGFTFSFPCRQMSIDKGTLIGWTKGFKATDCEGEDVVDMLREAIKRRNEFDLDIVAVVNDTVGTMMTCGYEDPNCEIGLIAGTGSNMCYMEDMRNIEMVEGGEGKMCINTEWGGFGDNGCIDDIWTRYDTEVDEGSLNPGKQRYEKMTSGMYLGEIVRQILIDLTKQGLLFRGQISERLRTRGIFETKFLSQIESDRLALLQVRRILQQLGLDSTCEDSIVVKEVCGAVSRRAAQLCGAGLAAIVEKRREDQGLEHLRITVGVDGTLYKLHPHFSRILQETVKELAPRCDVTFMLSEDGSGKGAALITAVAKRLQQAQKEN

[1] = target: T3, Replicative DNA helicase DnaB (Mycobacterium tuberculosis, UniProt P9WMR3); experiment: DnaB intein splicing inhibitors, dose response, biochemical, cell-free fluorescence (AID 449749); assay type: functional
T3 sequence (P9WMR3 whole entry): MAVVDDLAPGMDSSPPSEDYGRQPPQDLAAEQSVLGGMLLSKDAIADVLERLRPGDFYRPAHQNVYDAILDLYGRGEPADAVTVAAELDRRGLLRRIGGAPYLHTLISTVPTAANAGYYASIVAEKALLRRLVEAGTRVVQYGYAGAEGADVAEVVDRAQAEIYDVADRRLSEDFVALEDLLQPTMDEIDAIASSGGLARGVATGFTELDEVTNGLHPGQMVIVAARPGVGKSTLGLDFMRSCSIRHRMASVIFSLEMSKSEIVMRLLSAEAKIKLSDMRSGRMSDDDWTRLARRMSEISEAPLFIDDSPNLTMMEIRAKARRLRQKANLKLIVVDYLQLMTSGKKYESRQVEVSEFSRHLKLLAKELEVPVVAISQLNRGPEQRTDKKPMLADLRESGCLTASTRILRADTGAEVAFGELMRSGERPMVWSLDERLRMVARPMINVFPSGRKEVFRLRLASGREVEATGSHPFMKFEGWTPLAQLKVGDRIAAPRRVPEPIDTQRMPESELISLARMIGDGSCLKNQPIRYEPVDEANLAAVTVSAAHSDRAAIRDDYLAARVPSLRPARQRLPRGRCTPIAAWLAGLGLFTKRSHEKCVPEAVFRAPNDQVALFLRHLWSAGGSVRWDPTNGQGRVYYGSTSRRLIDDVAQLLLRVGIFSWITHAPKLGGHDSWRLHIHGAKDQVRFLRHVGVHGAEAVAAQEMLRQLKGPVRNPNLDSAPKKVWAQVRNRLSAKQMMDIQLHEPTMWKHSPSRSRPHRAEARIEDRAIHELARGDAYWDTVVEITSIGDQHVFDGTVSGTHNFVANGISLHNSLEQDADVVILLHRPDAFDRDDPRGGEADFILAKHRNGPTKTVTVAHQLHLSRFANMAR

[2] = target: T4, Low molecular weight phosphotyrosine protein phosphatase (Homo sapiens, UniProt P24666); assay type: functional; details: read-out: IC50_Mean;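 note: Dose-response confirmation assay measuring inhibition of LMPTP enzyme activity by fluorescence intensity read-out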
T4 sequence (P24666 whole entry): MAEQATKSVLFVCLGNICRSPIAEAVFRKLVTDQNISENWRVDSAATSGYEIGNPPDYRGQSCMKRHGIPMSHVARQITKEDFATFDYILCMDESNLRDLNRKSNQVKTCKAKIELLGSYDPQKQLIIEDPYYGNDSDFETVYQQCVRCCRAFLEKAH

[3] = target: Nucleotide-binding oligomerization domain-containing protein 2 (Homo sapiens, UniProt Q9HC29); experiment: NOD2 signaling inhibitors, cell-based, luminescence, uHTS, HEK293 (AID 1566); assay type: functional
Nucleotide-binding oligomerization domain-containing protein 2, sequence (Q9HC29 whole entry, the tested form may be a part): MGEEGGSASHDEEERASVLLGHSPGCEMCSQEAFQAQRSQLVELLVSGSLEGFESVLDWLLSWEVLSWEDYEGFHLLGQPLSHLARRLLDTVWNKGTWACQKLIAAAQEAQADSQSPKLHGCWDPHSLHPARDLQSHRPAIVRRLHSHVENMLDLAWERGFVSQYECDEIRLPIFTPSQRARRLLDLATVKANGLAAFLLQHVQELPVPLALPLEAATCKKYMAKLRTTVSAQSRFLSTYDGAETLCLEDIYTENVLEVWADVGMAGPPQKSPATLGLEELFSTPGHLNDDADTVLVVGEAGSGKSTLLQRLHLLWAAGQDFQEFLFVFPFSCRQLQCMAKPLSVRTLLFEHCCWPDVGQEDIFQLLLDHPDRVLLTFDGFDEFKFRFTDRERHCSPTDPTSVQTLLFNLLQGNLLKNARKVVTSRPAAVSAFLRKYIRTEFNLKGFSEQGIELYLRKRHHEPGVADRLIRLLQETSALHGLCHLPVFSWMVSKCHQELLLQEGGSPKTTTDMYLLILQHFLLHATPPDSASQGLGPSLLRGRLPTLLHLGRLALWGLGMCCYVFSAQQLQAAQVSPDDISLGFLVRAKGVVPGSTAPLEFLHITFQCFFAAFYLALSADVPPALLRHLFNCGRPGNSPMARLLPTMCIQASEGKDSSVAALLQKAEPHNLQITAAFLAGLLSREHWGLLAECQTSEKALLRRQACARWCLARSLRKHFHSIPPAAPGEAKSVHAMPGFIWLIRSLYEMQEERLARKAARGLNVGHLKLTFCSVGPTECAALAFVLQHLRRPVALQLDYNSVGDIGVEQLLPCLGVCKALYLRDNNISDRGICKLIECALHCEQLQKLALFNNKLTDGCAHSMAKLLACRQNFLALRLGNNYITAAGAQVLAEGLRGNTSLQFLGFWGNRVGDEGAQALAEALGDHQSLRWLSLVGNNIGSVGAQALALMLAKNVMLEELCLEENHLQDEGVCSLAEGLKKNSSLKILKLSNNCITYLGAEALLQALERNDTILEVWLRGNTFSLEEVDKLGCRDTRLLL

HEK293 [4] = experiment: cells; assay type: functional, cell-based; details: Homo sapiens
HEK293 [5] = experiment: NOD1 signaling inhibitors, primary screen, cell-based, luminescence, uHTS (AID 1578); assay type: functional; details: Homo sapiens
HEK293 [6] = experiment: cells; assay type: functional, cell-based; details: Homo sapiens; remark: listed apart in the source
HEK293 [7] = experiment: NOD2 signaling inhibitors in MDP-stimulated cells, cell-based, uHTS, luminescence (AID 2001); assay type: functional; details: Homo sapiens
HEK293 [8] = experiment: cells; assay type: functional, cell-based; details: Homo sapiens; remark: listed apart in the source
Genome polyprotein = Genome polyprotein (dengue virus type 2, UniProt P29990); experiment: Dengue-2 NS5 methyltransferase inhibitors, primary screen, biochemical, confirmation dose response (AID 588689); assay type: functional
Genome polyprotein, sequence (P29990 2492-3391 limits assumed): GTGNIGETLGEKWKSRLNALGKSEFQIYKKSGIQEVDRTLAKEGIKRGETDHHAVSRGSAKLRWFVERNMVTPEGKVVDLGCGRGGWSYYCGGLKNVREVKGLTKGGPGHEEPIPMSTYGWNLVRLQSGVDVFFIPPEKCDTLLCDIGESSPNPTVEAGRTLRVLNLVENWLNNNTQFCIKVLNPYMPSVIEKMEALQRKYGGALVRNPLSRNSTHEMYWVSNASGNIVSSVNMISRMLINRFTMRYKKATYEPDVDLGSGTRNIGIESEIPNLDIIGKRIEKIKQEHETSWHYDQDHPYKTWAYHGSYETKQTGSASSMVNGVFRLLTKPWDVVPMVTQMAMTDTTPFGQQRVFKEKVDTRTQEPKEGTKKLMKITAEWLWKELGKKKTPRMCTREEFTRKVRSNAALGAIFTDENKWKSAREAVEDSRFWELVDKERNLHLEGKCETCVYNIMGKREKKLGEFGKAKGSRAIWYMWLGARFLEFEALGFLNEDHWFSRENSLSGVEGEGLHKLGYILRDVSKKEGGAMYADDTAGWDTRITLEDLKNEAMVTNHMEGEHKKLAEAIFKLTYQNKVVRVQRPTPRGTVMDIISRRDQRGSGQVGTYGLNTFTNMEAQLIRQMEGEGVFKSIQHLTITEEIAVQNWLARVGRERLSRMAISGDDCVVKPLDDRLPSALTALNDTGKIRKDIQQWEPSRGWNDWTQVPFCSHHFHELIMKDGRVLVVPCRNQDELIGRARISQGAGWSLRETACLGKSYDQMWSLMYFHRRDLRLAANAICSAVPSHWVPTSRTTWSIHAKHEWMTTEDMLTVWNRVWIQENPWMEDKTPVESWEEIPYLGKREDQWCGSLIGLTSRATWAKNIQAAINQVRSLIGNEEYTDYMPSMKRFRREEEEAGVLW

Vero = Vero cell cytotoxicity, cytotoxicity control for flavivirus capping enzyme inhibitors (AID 588742); assay type: functional; details: Chlorocebus sabaeus
[9] = Luminescence Cell-Based Dose Retest to Confirm Inhibitors of Cancer Stem Cells. [Related pubchem assays (depositor defined):AID2717, AID2721]; assay type: functional, Homo sapiens; details: Homo sapiens
[10] = microbe, parasite or virus in culture; assay type: functional; details: Mycobacterium tuberculosis
[11] = growth suppression of PTEN-null colon cells, dose response, cell-based, HCT116 PTEN knockout (AID 1047); assay type: functional;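 note: HCT116 colon tumor cells with PTEN knocked out; cells exposed to compound for 60 hours before readout; potency for loss of cell viability measured by luminescence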
[12] = growth suppression of beta-catenin-knockout colon cells, dose response, cell-based, HCT116, human colon tumor (AID 1045); assay type: functional;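 note: HCT116 colon tumor cells with beta catenin knocked out; cells exposed to compound for 60 hours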
[13] = Shn3 3'UTR reporter inhibitors, dose response, cell-based, Clone20 osteoblasts, firefly luciferase, cherry-picked (AID 624132); assay type: functional;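 note: firefly luciferase luminescence from reporter carrying the Shn3 3'UTR in osteoblasts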
[14] = control 3'UTR Renilla luciferase suppression, dose response, counter-screen for Shn3 inhibitor project, cell-based, Clone20-Shn3RL, cherry-picked (AID 624133); assay type: functional
[15] = IGROV1 ovarian cancer cell cytotoxicity, dose response, PAX8 inhibitor project, plate reader, dry powder samples (AID 743043); assay type: functional, cell-based; details: IGROV-1
[16] = cytotoxicity in OVCAR8 ovarian cancer cells, dose response, PAX8 project, cell-based, plate reader, dry powder samples (AID 743197); assay type: functional; details: OVCAR-8
[17] = inhibitors of clade B AD8 Env fusion, dose response, cell-based, cherry-pick (AID 652062); assay type: functional;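 note: luciferase signal from cell-cell fusion driven by HIV-1 clade B AD8 Env; potency is for inhibitors of fusion seen as a drop in luminescence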
Paired box protein Pax-8 = Paired box protein Pax-8 (Homo sapiens, UniProt Q06710); experiment: inhibitors of PAX8-driven TPO luciferase reporter, dose response, RMG-I cells, cherry-pick (AID 687027); assay type: functional, cell-based;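 note: luciferase reporter driven by Pax8 target thyroperoxidase promoter measured by SteadyGlo luminescence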
Paired box protein Pax-8, sequence (Q06710 whole entry): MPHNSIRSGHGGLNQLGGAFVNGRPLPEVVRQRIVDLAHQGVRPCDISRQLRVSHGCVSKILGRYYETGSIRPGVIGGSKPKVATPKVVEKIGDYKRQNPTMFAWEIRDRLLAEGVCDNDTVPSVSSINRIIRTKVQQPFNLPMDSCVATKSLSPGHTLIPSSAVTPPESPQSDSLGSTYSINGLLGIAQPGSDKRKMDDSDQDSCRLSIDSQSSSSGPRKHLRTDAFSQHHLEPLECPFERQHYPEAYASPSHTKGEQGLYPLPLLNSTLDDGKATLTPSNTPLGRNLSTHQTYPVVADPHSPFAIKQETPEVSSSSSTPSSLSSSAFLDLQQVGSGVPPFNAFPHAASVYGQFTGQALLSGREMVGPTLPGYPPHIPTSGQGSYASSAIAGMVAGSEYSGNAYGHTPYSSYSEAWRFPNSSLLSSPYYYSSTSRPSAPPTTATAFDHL

[18] = NIH:OVCAR-3 ovarian cancer cell cytotoxicity, dose response, PAX8 inhibitor project, plate reader, dry powder samples (AID 743044); assay type: functional, cell-based
[19] = inhibitors of HIV Env-driven cell fusion, dose response, cherry-pick (AID 652057); assay type: functional, cell-based
[20] = P. falciparum ATP4 D1247Y mutant growth inhibitors, dose response, NITD609-resistant line, SYBR Green, dry powder (AID 1159571); assay type: functional, cell-based;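 note: parasites synchronized at ring stage by sorbitol before testing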
[21] = P. falciparum 3D7-ScDHODH growth inhibitors, dose response, SYBR Green, dry powder samples (AID 1159570); assay type: functional, cell-based;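 note: parasite growth measured after 72 hours of compound exposure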
[22] = P. falciparum Dd2 growth inhibitors, dose response, SYBR Green, dry powder samples (AID 1159566); assay type: functional, cell-based;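 note: potency for growth inhibition with lower SYBR green DNA signal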

## Cc1ccc(S(=O)(=O)Nc2c(O)ccc3ccccc23)cc1
Protein RecA
  EC50: 0.939 µM (active)
Hexokinase HKDC1
  IC50: 16.1 µM (active)
[1]
  AC50: 8.03 µM (active)

## CCOC(=O)CSc1nc2ccc(C)cc2n2cnnc12
Hexokinase HKDC1
  IC50: 9.55 µM (active)

## CCn1cc(C(=O)O)c(=O)c2cc(F)c(N3CCN(C(=S)NC(=O)c4cccc(C)c4)CC3)cc21
[2]
  IC50: 2.74 µM (active)

## Cc1nc(SCCC(=O)O)c2cc(-c3ccccc3)sc2n1
[3]
  EC50: > 20 µM (inactive)
HEK293 [4]
  IC50: 4.5 µM (active)
HEK293 [5]
  EC50: > 20 µM (inactive)
HEK293 [6]
  IC50: > 20 µM (inactive)
HEK293 [7]
  IC50: > 20 µM (inactive)
HEK293 [8]
  IC50: > 20 µM (inactive)

## O=C(Nc1ccccc1-c1nc2ccccc2s1)C1=COCCO1
[2]
  IC50: 11.7 µM (active)

## Cc1ccc(S(=O)(=O)Nc2ccccc2-c2ccccc2NS(=O)(=O)c2ccc(C)cc2)cc1
[3]
  EC50: 11.5 µM (active)
HEK293 [4]
  IC50: 11.8 µM (active)
Genome polyprotein
  IC50: 54.8 µM (active)
HEK293 [5]
  EC50: 4.99 µM (active)
HEK293 [6]
  IC50: > 20 µM (inactive)
Vero
  CC50: > 40 µM (active)
HEK293 [7]
  IC50: 10 µM (inactive)
HEK293 [8]
  IC50: > 20 µM (inactive)
[9]
  AC50: 6.86 µM (active)

## CCn1cc(C(=O)O)c(=O)c2cc(F)c(N3CCN(C(=S)NC(=O)c4ccc(Br)cc4)CC3)cc21
[2]
  IC50: 3.17 µM (active)

## NC(=O)c1c(NC(=O)C(=O)N2CCOCC2)sc2c1CCCC2
[3]
  EC50: > 20 µM (inactive)
HEK293 [4]
  IC50: > 20 µM (inactive)
HEK293 [5]
  EC50: > 20 µM (inactive)
HEK293 [6]
  IC50: > 20 µM (inactive)
HEK293 [7]
  IC50: > 20 µM (inactive)
HEK293 [8]
  IC50: > 20 µM (inactive)

## O=C1c2ccccc2-c2onc3ccc(Oc4ccccc4)c1c23
Protein RecA
  EC50: 0.452 µM (active)
[10]
  CC50: 9.25 µM (active)
[11]
  EC50: 6.21 µM (active)
[12]
  EC50: 6.7 µM (active)
Hexokinase HKDC1
  IC50: 70.7 µM (inactive)
[1]
  AC50: 1.38 µM (active)

## COc1cc(C2c3c([nH]c(=O)[nH]c3=O)Nc3ccc4ccccc4c32)cc(OC)c1OC (stereo unspecified)
Hexokinase HKDC1
  IC50: 15.2 µM (active)

## COc1cc(OC)c(OC)cc1/C=C1\CC(C)C/C(=C\c2cc(OC)c(OC)cc2OC)C1=O (stereo unspecified)
[3]
  EC50: 7.31 µM (active)
HEK293 [4]
  IC50: 5.7 µM (active)
HEK293 [5]
  EC50: 6.38 µM (active)
HEK293 [6]
  IC50: 15.7 µM (active)
[13]
  AC50: 3.22 µM (active)
[14]
  AC50: 5.08 µM (active)
HEK293 [7]
  IC50: 6.92 µM (active)
HEK293 [8]
  IC50: > 20 µM (inactive)

## Cc1noc(C)c1S(=O)(=O)Nc1ccc2c(c1)CC(=O)N([C@@H](C)CO)C[C@@H](C)[C@H](CN(C)Cc1ccc(Cl)c(Cl)c1)O2
[15]
  AC50: 12.6 µM (active)
[16]
  AC50: 21.1 µM (active)
[17]
  AC50: 1.42 µM (active)
Paired box protein Pax-8
  AC50: 1.19 µM (active)
[18]
  AC50: 41.1 µM (active)
[19]
  AC50: 10.9 µM (active)

## C[C@H](CO)N1C[C@H](C)[C@@H](CN(C)Cc2ccc(-c3ccccc3)cc2)Oc2ccc(NS(=O)(=O)c3ccc(F)cc3)cc2CC1=O
[15]
  AC50: 27.8 µM (active)
[16]
  AC50: 55.8 µM (active)
Paired box protein Pax-8
  AC50: 8.82 µM (active)
[18]
  AC50: 29.7 µM (active)

## OC[C@H]1[C@H](c2ccccc2)C2(CN(Cc3ccccc3F)C2)N1Cc1ccccc1F
[20]
  AC50: 1.15 µM (active)
[21]
  AC50: 1.1 µM (active)
[22]
  AC50: 0.542 µM (active)
